PMC6264390, “Design, Synthesis and Structure-activity Studies of Rhodanine Derivatives as HIV-1 Integrase Inhibitors” (Molecules, 2010)
Like-named read-outs stand apart in the source and are kept apart here.

Tests used:
HIV-1 IN = biological target: T1, HIV-1 IN (Human immunodeficiency virus type 1 group M subtype B, UniProt P12497); assay: In vitro IN inhibition assay (3’-processing and strand transfer); assay type: biochemical
T1 construct: pre-incubated with purified recombinant IN (at a final concentration of 200 nM); made in house
Method in brief: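 Recombinant HIV-1 IN (200 nM) preincubated with compound 30 min at 30 °C in MnCl2-containing buffer (MgCl2 plus PEG for Mg2+ format), then 1 h with 20 nM 5'-32P-labeled 21-mer duplex. 3'-processing and strand-transfer products resolved on denaturing gels, phosphorimager-quantified; IC50 from log-concentration versus % inhibition.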

[1] = biological target: T2, human apurinic/apyrimidinic endonuclease 1 (APE1) (Homo sapiens, UniProt P27695); assay: APE1 inhibition assay; assay type: biochemical; conditions: for IC50: read-out: Inhibition of APE1 catalytic activity IC50; for APE1 inhibition (in words): at 100 μM
T2 construct: His; made in house
Method in brief: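 His-tagged APE1 (0.05 nM) preincubated with compound 10 min at 30 °C in MOPS pH 7.2 buffer with 7.5 mM MnCl2 and 10% DMSO, then 200 nM 5′-32P-labelled abasic (THF) duplex added for 10 min. Incision products resolved on denaturing gel, phosphorimaged; IC50 from %I versus log concentration.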

HIV-1 = assay: MT-4 cell infectivity assay; assay type: cell-based; conditions: MT-4 cells
IN = system: IN; design: method as in PMID 15634005; conditions: cited from earlier work
[2] = Mn2+ cofactor (7.5 mM MnCl2), read-out: Inhibition of IN catalytic activity IC50, 3’-Processing
[3] = Mn2+ cofactor (7.5 mM MnCl2), read-out: Inhibition of IN catalytic activity IC50, Strand Transfer

T2 sequence (P27695 whole entry): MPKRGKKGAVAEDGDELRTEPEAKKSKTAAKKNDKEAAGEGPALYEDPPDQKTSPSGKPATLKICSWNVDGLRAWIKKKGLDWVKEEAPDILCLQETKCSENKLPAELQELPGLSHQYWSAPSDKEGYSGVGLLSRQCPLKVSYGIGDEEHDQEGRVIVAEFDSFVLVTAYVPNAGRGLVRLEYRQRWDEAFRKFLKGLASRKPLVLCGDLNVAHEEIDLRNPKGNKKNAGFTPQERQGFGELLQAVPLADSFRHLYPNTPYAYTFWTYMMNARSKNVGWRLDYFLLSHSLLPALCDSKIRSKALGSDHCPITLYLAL

SMILES | selectivity for IN than APE1 (HIV-1 IN; IN versus APE1) [fold] | IC50 (HIV-1 IN; [2]) [µM] | IC50 (HIV-1 IN; [3]) [µM] | IC50 (HIV-1 IN; in the presence of Mg^2+ as the cofactor, read-out: Inhibition of IN catalytic activity IC50, 3’-Processing, Mg2+ (converted)) [µM] | IC50 (HIV-1 IN; in the presence of Mg^2+ as the cofactor, read-out: Inhibition of IN catalytic activity IC50, Strand Transfer, Mg2+ (converted)) [µM] | IC50 [1] [µM] | antiviral activity against HIV-1 (HIV-1) | melting point [°C] | APE1 inhibition (in words) [1] | IC50 (IN; read-out: IC50, 3’-processing) [µM] | IC50 (IN; read-out: IC50, strand transfer) [µM] | IN inhibition (in words) (HIV-1 IN; highest concentration tested 100 μM)
O=C(Nc1ccc(O)cc1)C(=S)NN1C(=O)C(=Cc2cc(I)cc(I)c2O)SC1=S [Compound 53, 2-{[5-(2-Hydroxy-3,5-diiodobenzylidene)-4-oxo-2-thioxo-1,3-thiazolidin-3-yl]amino}-N-(4-hydroxy-phenyl)-2-thioxoacetamide] | 20 | 7 ± 3 | 3 ± 2 | 12.5 | 11 | 62 ± 3 | did not show any significant antiviral activity | 157 to 158 |  |  |  | 
O=C(Nc1ccc(O)cc1)C(=S)NN1C(=O)C(=Cc2cc(N=Nc3ccccc3)ccc2O)SC1=S [Compound 48, N-(4-hydroxyphenyl)-2-[(5-{2-hydroxy-5-[(E)-phenyldiazenyl]benzylidene}-4-oxo-2-thioxo-1,3-thiaz-olidin-3-yl)amino]-2-thioxoacetamide] |  | 17 ± 7 | 8 ± 2 |  |  | > 100 | did not show any significant antiviral activity | 145 to 146 | did not show any significant APE1 inhibition |  |  | 
O=C(O)c1ccc(N2C(=O)/C(=C/c3ccccc3)SC2=S)cc1 [Compound 1] |  |  |  |  |  |  |  |  |  | 15 | 11 | 
O=C(Nc1ccc(O)cc1)C(=S)NN1C(=O)C(=Cc2cc(Br)cc(Br)c2O)SC1=S [Compound 51, 2-{[5-(3,5-Dibromo-2-hydroxybenzylidene)-4-oxo-2-thioxo-1,3-thiazolidin-3-yl]amino}-N-(4-hydroxy-phenyl)-2-thioxoacetamide] |  | 28 ± 1 | 21 ± 7 |  |  | > 100 | did not show any significant antiviral activity | 189 to 190 | did not show any significant APE1 inhibition |  |  | 
O=C(Nc1ccccc1)C(=S)NN1C(=O)C(=Cc2c[nH]c3ccccc23)SC1=S [Compound 10, 2-{[5-(1H-indol-3-ylmethylene)-4-oxo-2-thioxo-1,3-thiazolidin-3-yl]amino}-N-phenyl-2-thioxo-acetamide] |  | > 100 | > 100 |  |  | > 100 |  | 206 to 207 |  |  |  | abolished any activity
